# Laboratory results reported in patent publication US10582715B2, “Powder flavour composition” (Givaudan S.A., priority 2012, dated 2020).
# Columns and labels:
# [1] = Tasting of snack product (fried potato base, 35% fat, cheese seasoning) with added compound
# Text: A snack product consisting of a fried potato base, containing 35% fat and flavored with cheese seasoning containing salt, MSG, dairy, organic acids, sugars, and a flavour formulation.
# [2] = Tasting of air expanded base (3% fat, cheese seasoning) with added compound
# Text: An air expanded base (Rice, wheat, Tapioca, potato, salt, sugar, modified starch), containing 3% fat and flavored with cheese seasoning containing salt, MSG, dairy, organic acids, sugars and flavor.
# [3] = Test on orange flavoured Tang powdered soft drink, evaluated by expert tasters
# Procedure: In an orange flavoured Tang powdered soft drink (market product) sweetened with sucrose plus high intensity sweetener and containing citric acid, C18:2-gaba and C18:2-pro were tested.
# All samples were evaluated by expert tasters. Tasters were asked to describe the samples focusing on authentic taste, mouthfeel & body, enhancement, richness, juiciness, long lastingness, salivation, sweetness, masking off notes of high intensity sweetener
# Base is Orange Flavoured Tang
# Base: sweet, orange, licorice, and lingering high intensity sweetener offnotes, bitter, thin
# [4] = Mango flavoured still beverage containing different levels of juice, evaluated by expert tasters
# Procedure: In a Mango flavoured still beverage, sweetened with 8% sucrose and containing 0.1% citric acid and 1%, 4% and 6% clear mango juice flavoured with a proprietary Mango flavour @ 0.05% , C18:2-gaba and C18:2-Pro were added, as such (separate) and in combination.
# All samples were evaluated by expert tasters. Tasters were asked to describe the samples focusing on authentic taste, juicy mouthfeel, enhancement, richness, juiciness, long lastingness, salivation, sweetness.
# In a Mango flavoured still beverage, sweetened with 8% sucrose & containing 0.1% citric acid and 1% clear mango juice flavoured with proprietary Mango flavour @ 0.05%, C18:2-gaba and C18:2-Pro were added, as such (separate) and in combination.
# Base is water, 8% sucrose, 0.1% citric acid, 1% clear mango juice (very low juice %), flavoured with Mango flavor, dosed at 0.05%
# Base: sweet, fruity, mango, thin
# In a Mango flavoured still beverage, sweetened with 8% sucrose & containing 0.1% citric acid and 4% clear mango juice flavoured with Mango flavour @ 0.05% , C18:2-gaba and C18:2-Pro were added, as such (separate) and in combination.
# Base is water, 8% sucrose, 0.1% citric acid, 4% clear mango juice (30% reduced juice), flavoured with Mango flavor, dosed at 0.05%
# Base: sweet, fruity, mango, some low mouthfeel
# In a Mango-flavoured still beverage, sweetened with 8% sucrose & containing 0.1% citric acid and 6% clear mango juice flavoured with Mango flavour @ 0.05%, C18:2-gaba and C18:2-Pro were added, as such (separate) and in combination.
# Base is water, 8% sucrose, 0.1% citric acid, 6% clear mango juice (full juice), flavoured with Mango flavor, dosed at 0.05%.
# Base: Sweet, fruity mango, full mouthfeel
# [5] = Test in 3 in 1 Coffee beverage, evaluated by expert tasters; conditions: sucrose 13.2%, creamer 2.1% fat, compound at 1 ppm, base: coffee, sweet, mild dairy
# Procedure: In a 3 in 1 Coffee beverage from Nestle (market product) sweetened with sucrose 13.2% and containing creamer (2.1% fat) C18:2-gaba was added.
# Samples were evaluated by expert tasters. Tasters were asked to describe the samples focusing on authentic taste, mouthfeel, fullness, salivation, sweetness, juiciness, richness, long lastingness and fattiness.
# Base is 3-in-1 Coffee Beverage (Market Product) Sweetened with Sucrose and Containing Creamer with Fat
# Base: coffee, sweet, mild dairy
smiles,measurement,setting,value
CCCCCCCC/C=C\CCCCCCCC(=O)N[C@@H](CCSC)C(=O)O [C18:1 met],tasting results,[1]; compound at 0.25 ppm,"Salty, aged cheese, succulent"
same,tasting results,[1]; compound at 0.5 ppm,"Increased cheese, creamy, salty and succulent"
"CCCCCCCC/C=C\CCCCCCCC(=O)NC1(C(=O)O)CC1 [C18:1-ACCA, N-oleoyl 1-amino-cyclopropyl carboxylic acid]",tasting results,[2]; compound at 0.5 ppm,Increased salty
same,tasting results,[2]; compound at 1 ppm,"Increased Umami, salty"
same,tasting results,[1]; compound at 0.5 ppm,Increased salty
same,tasting results,[1]; compound at 1 ppm,"Increased Umami, salty"
CCCCC/C=C\C/C=C\CCCCCCCC(=O)N1CCC[C@H]1C(=O)O [C18:2-Pro],masking off notes of high intensity sweetener,[3]; compound at 1 ppm,the off-notes of the high intensity sweetener were suppressed
same,taste description by expert tasters,[3]; compound at 1 ppm,"very fresh, enhances sweet juicy orange notes, characteristic of authentic fresh orange fruit"
same,taste description by expert tasters,"[4]; 1% clear mango juice, compound at 0.5 ppm","more sweet, sugar-like, very juicy and long lasting sweet, salivating"
same,taste description by expert tasters,"[4]; 4% clear mango juice, compound at 0.5 ppm","more sweet, sugar-like, very juicy and long lasting sweet, salivating"
same,taste description by expert tasters,"[4]; 6% clear mango juice (full juice), compound at 0.5 ppm","more sweet, sugar-like, very juicy and long lasting sweet, salivating, syrupy"
CCCCC/C=C\C/C=C\CCCCCCCC(=O)NCCCC(=O)O [C18:2-gaba],taste description by expert tasters,[5],"very nice mouthfeel effect, creamy as if coffee creamer is added, more sweet"
same,masking off notes of high intensity sweetener,[3]; compound at 0.5 ppm,the off-notes of the high intensity sweetener were suppressed
same,taste description by expert tasters,[3]; compound at 0.5 ppm,"enhances sweet juicy orange notes, enhanced mouthfeel"
same,taste description by expert tasters,"[4]; 1% clear mango juice, compound at 1 ppm","fatty skin-like, very juicy, authentic mango, much more mouthfeel, long lasting mango taste, mouthfeel is close to the full juice product"
same,taste description by expert tasters,"[4]; 4% clear mango juice, compound at 1 ppm","fatty skin-like, very juicy, authentic mango, long lasting mango taste, more mouthfeel than the full juice product"
same,taste description by expert tasters,"[4]; 6% clear mango juice (full juice), compound at 1 ppm","fatty skin-like, very thick juicy, authentic mango, long lasting mango taste, rich"
same,tasting results,[2]; compound at 0.5 ppm,"Increased dairy, cheese"
same,tasting results,[2]; compound at 1 ppm,"Fatty full, cheesy, cheese crust, long lasting, cover base"
same,tasting results,[1]; compound at 0.5 ppm,"increased dairy, cheesy"
same,tasting results,[1]; compound at 1 ppm,"Fatty full, cheesy, cheese crust, long lasting"
